Experimental data: PubChem BioAssay (NCI)
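Protocol summary: plate cells (96-well), add compound at 5 concentrations, incubate 48 h, interpolate endpoints linearly. The concentration for 50% growth inhibition is given as GI50. TGI: concentration producing complete growth inhibition.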

Legend:
Assay in all cases: growth of human tumour cells (NCI), 48 h
[1] = test system: HCT-116 colon
[2] = test system: HL-60(TB) leukemia
[3] = test system: LOX IMVI melanoma
[4] = test system: OVCAR-4 ovarian
[5] = test system: OVCAR-5 ovarian
[6] = test system: RPMI-8226 leukemia
[7] = test system: SF-268 CNS
[8] = test system: SNB-19 CNS
[9] = test system: NCI/ADR-RES ovarian
[10] = test system: PC-3 prostate

Compound	TGI [1]	TGI [2]	TGI [3]	TGI [4]	TGI [5]	TGI [6]	TGI [7]	TGI [8]	GI50 [1]	GI50 [2]	GI50 [3]	GI50 [9]	TGI [9]	GI50 [4]	GI50 [5]	GI50 [10]	TGI [10]	GI50 [7]	GI50 [8]	GI50 [6]
CC1=C2C=CC(=O)C[C@@]2(C)CCC1	> 100 µM	> 100 µM	> 100 µM	> 100 µM	> 100 µM	> 100 µM	> 100 µM	> 100 µM	–	–	–	–	–	–	–	–	–	–	–	–
COc1cc(-c2ccc[nH]2)[nH]c1/C=C1\N=C(C)C(CC(=O)OCC(C)(C)C)=C1C	1.15 µM	0.801 µM	0.467 µM	2.06 µM	2.31 µM	–	1.84 µM	2.51 µM	0.181 µM	0.239 µM	0.0733 µM	0.357 µM	1.46 µM	0.331 µM	0.501 µM	0.1 µM	1.65 µM	0.288 µM	0.468 µM	–
Cn1c(I)c(C#C[Si](C)(C)C)c(=O)[nH]c1=O	3.57 µM	4.42 µM	4 µM	3.59 µM	30.8 µM	4.28 µM	8.85 µM	30.1 µM	1.89 µM	1.9 µM	2.09 µM	20.7 µM	42.8 µM	1.97 µM	14.7 µM	–	–	2.79 µM	16 µM	1.64 µM
Cc1c(-c2ccccn2)ccc2ccccc12	> 100 µM	> 100 µM	> 100 µM	–	> 100 µM	44.1 µM	> 100 µM	> 100 µM	–	–	–	–	> 100 µM	–	–	–	> 100 µM	–	–	–
CC1(C)C(=O)/C=C\C(=O)C(C)(C)C(=O)/C=C\C(=O)C(C)(C)C2=CC=C(O2)C(C)(C)C(=O)/C=C\C1=O	5 µM	2.24 µM	13 µM	14.8 µM	37.1 µM	3.17 µM	43.8 µM	30.6 µM	–	–	–	–	–	–	–	–	29.2 µM	–	–	–
Clc1ccc(-c2nc(NCc3ccco3)c3ccccc3n2)c(Cl)c1	45.8 µM	–	26.8 µM	> 100 µM	> 100 µM	81.9 µM	75.3 µM	> 100 µM	16.3 µM	–	8.98 µM	26.3 µM	> 100 µM	43.3 µM	40.1 µM	13.9 µM	55.7 µM	32.3 µM	38.4 µM	5.64 µM
S=C(SSC(=S)N1CCCCC1)N1CCCCC1	–	51.3 µM	18.1 µM	48.9 µM	27.9 µM	40.2 µM	41.6 µM	> 100 µM	–	12.4 µM	5.64 µM	15.7 µM	40.9 µM	9.65 µM	14.6 µM	12.3 µM	51.4 µM	17.4 µM	51 µM	12.9 µM
COc1cc(C(=O)O[C@H](C(=O)NCCCCNC(=O)[C@@H](OC(=O)c2cc(OC)cc3c(C)cccc23)[C@]2(C)CO2)[C@]2(C)CO2)c2cccc(C)c2c1	–	< 0.01 µM	< 0.01 µM	2.08 µM	1.05 µM	3.86 µM	0.0619 µM	2.31 µM	–	< 0.01 µM	< 0.01 µM	0.199 µM	0.904 µM	0.218 µM	0.257 µM	0.114 µM	1.5 µM	0.0101 µM	0.201 µM	0.195 µM
COc1ccc2nc3ccccc3c(NCCCCN(CCCl)CCCl)c2c1	1.32 µM	–	–	0.542 µM	> 23.6 µM	0.943 µM	2.36 µM	7.9 µM	–	–	–	–	5.4 µM	–	–	–	7.56 µM	–	–	–
CSc1ccc(C(=O)/C=C/c2ccc(Cl)cc2Cl)cc1	14.9 µM	38.2 µM	37 µM	77.2 µM	52.2 µM	37.7 µM	48.9 µM	–	3.91 µM	18.4 µM	20 µM	30 µM	94.7 µM	21.8 µM	21.6 µM	39.6 µM	> 100 µM	20.8 µM	–	14.7 µM
COC(=O)[C@@]12C3=NO[C@]1(C(=O)OC)C(O[Si](C)(C)C(C)(C)C)[C@@H](OC(C)=O)[C@@H](OC(C)=O)[C@@H]2[C@@H](OCc1ccccc1)CC3 (some centres not stated)	> 100 µM	> 100 µM	> 100 µM	> 100 µM	> 100 µM	> 100 µM	> 100 µM	> 100 µM	–	–	–	–	–	–	–	–	–	–	–	–
CC(=O)[CH-]C(=O)c1ccccc1.CC(=O)[CH-]C(=O)c1ccccc1.CC(=O)[CH-]C(=O)c1ccccc1.[Ga+3]	29.8 µM	36.1 µM	31.7 µM	34.5 µM	66.8 µM	37.1 µM	26.9 µM	> 100 µM	15.5 µM	11.8 µM	16.3 µM	–	–	17.1 µM	26.5 µM	–	–	11.6 µM	39.1 µM	12.1 µM
COC(=O)c1cc2cc(/C=C3/SC(=S)N(N(C(C)=O)C(C)=O)C3=O)oc2n1Cc1ccccc1	–	–	31.4 µM	> 100 µM	38.1 µM	> 100 µM	> 100 µM	> 100 µM	–	–	13.9 µM	14.4 µM	35 µM	38.2 µM	19 µM	37.8 µM	> 100 µM	48.2 µM	27.3 µM	29.4 µM
O=C(NCCNCCO)c1ccc(Nc2nc3ccccc3c3occc23)cc1	23.3 µM	–	22.2 µM	> 100 µM	23.2 µM	37.5 µM	> 100 µM	49.5 µM	10.1 µM	–	8.45 µM	24.9 µM	61.8 µM	24 µM	10.9 µM	4.15 µM	18.3 µM	> 100 µM	18.5 µM	18.3 µM
O=C1C(Cl)=C(NCCCN(CCCNC2=C(Cl)C(=O)c3ccccc3C2=O)C2=C(Cl)C(=O)c3ccccc3C2=O)C(=O)c2ccccc21	–	–	–	2.85 µM	17.2 µM	> 100 µM	18.8 µM	18.9 µM	–	–	–	4.06 µM	> 100 µM	1.49 µM	4.85 µM	2.15 µM	16.7 µM	2.76 µM	3.79 µM	3.8 µM
NC(=O)c1ncn(C2OC(CO)C(O)C2O)c1O (configuration not stated)	> 100 µM	> 100 µM	> 100 µM	> 100 µM	> 100 µM	> 100 µM	> 100 µM	> 100 µM	–	–	–	–	–	–	–	–	–	–	–	–
